{"source": "ChEMBL document CHEMBL5726776", "about": "“3,5-diamino-6-chloro-N-(N-(4-phenylbutyl)carbamimidoyl) pyrazine-2-carboxamide compounds” (2019)", "assay": "In Vitro Measure of Sodium Channel Blocking Activity and Reversibility: One assay used to assess mechanism of action and/or potency of the compounds of the present invention involves the determination of lumenal drug inhibition of airway epithelial sodium currents measured under short circuit current (ISC) using airway epithelial monolayers mounted in Using chambers. This assay is described in detail in Hirsh, A. J., Zhang, J., Zamurs, A., et al. Pharmacological properties of N-(3,5-diamino-6-chloropyrazine-2-carbonyl)-N′-4-[4-(2,3-dihydroxypropoxy)phenyl]butyl-guanidine methanesulfonate (552-02), a novel epithelial sodium channel blocker with potential clinical efficacy for CF lung disease. J. Pharmacol. Exp. Ther. 2008; 325(1): 77-88. Cells obtained from freshly excised human, dog, sheep or rodent airways are seeded onto porous 0.4 micron Snapwell™ Inserts (CoStar), cultured at air-liquid interface (ALI) conditions in hormonally defined media, and assayed for sodium transport activity (ISC) while bathed in Krebs Bicarbonate Ringer (KBR) in Using chambers. All test drug additions are to the lumenal bath with half-log dose addition protocols (from 1×10−11 M to 3×10−5 M), and the cumulative change in ISC (inhibition) recorded. All drugs are prepared in dimethyl sulfoxide as stock solutions at a concentration of 1×10−2 M and stored at −20° C. […] After the maximal concentration ([…]) is administered, the lumenal bath is exchanged three times with fresh drug-free KBR solution, and the resultant ISC measured after each wash for approximately 5 minutes in duration. Reversibility is defined as the percent return to the baseline value for sodium current after the third wash. All data from the voltage clamps are collected via a computer interface and analyzed off-line.Dose-effect relationships for all compounds are considered and analyzed by the Prism 3.0 program.", "data": [{"smiles": "CCCCCCN(CCCN[C@@H](Cc1ccc2cc(CCCCNC(=N)NC(=O)c3nc(Cl)c(N)nc3N)ccc2c1)C(N)=O)C[C@H](O)[C@@H](O)[C@H](O)[C@H](O)CO", "values": [{"measurement": "IC50", "value": 11.3, "unit": "nM"}]}, {"smiles": "N=C(NCCCCc1ccc(CC[C@H](NCCCN(C[C@H](O)[C@@H](O)[C@H](O)[C@H](O)CO)C[C@H](O)[C@@H](O)[C@H](O)[C@H](O)CO)C(N)=O)c2c1CCCC2)NC(=O)c1nc(Cl)c(N)nc1N", "values": [{"measurement": "IC50", "value": 7.3, "unit": "nM"}]}, {"smiles": "CCCCCCN(CCCN[C@@H](CCc1ccc(CCCCNC(=N)NC(=O)c2nc(Cl)c(N)nc2N)cc1)C(N)=O)C[C@H](O)[C@@H](O)[C@H](O)[C@H](O)CO", "values": [{"measurement": "IC50", "value": 2.6, "unit": "nM"}]}, {"smiles": "N=C(NCCCCc1ccc(C[C@H](NCCCN(C[C@H](O)[C@@H](O)[C@H](O)[C@H](O)CO)C[C@H](O)[C@@H](O)[C@H](O)[C@H](O)CO)C(N)=O)c2c1CCCC2)NC(=O)c1nc(Cl)c(N)nc1N", "values": [{"measurement": "IC50", "value": 5.5, "unit": "nM"}]}, {"smiles": "CCCCCCN(CCCN[C@@H](Cc1ccc(CCCCNC(=N)NC(=O)c2nc(Cl)c(N)nc2N)cc1)C(N)=O)C[C@H](O)[C@@H](O)[C@H](O)[C@H](O)CO", "values": [{"measurement": "IC50", "value": 2.9, "unit": "nM"}]}, {"smiles": "CCCCCCN(CCCN[C@@H](Cc1ccc(CCCCNC(=N)NC(=O)c2nc(Cl)c(N)nc2N)c2ccccc12)C(N)=O)C[C@H](O)[C@@H](O)[C@H](O)[C@H](O)CO", "values": [{"measurement": "IC50", "value": 8.8, "unit": "nM"}]}, {"smiles": "N=C(NCCCCc1ccc2cc(CC[C@H](NCCCN(C[C@H](O)[C@@H](O)[C@H](O)[C@H](O)CO)C[C@H](O)[C@@H](O)[C@H](O)[C@H](O)CO)C(N)=O)ccc2c1)NC(=O)c1nc(Cl)c(N)nc1N", "values": [{"measurement": "IC50", "value": 12.5, "unit": "nM"}]}, {"smiles": "N=C(NCCCCc1ccc(C[C@H](NCCCN(C[C@H](O)[C@@H](O)[C@H](O)[C@H](O)CO)C[C@H](O)[C@@H](O)[C@H](O)[C@H](O)CO)C(N)=O)cc1)NC(=O)c1nc(Cl)c(N)nc1N", "values": [{"measurement": "IC50", "value": 35.6, "unit": "nM"}]}, {"smiles": "N=C(NCCCCc1ccc(CC[C@H](NCCCN(C[C@H](O)[C@@H](O)[C@H](O)[C@H](O)CO)C[C@H](O)[C@@H](O)[C@H](O)[C@H](O)CO)C(N)=O)c2ccccc12)NC(=O)c1nc(Cl)c(N)nc1N", "values": [{"measurement": "IC50", "value": 24, "unit": "nM"}]}, {"smiles": "N=C(NCCCCc1ccc(C[C@H](NCCCN(C[C@H](O)[C@@H](O)[C@H](O)[C@H](O)CO)C[C@H](O)[C@@H](O)[C@H](O)[C@H](O)CO)C(N)=O)c2ccccc12)NC(=O)c1nc(Cl)c(N)nc1N", "values": [{"measurement": "IC50", "value": 40.8, "unit": "nM"}]}, {"smiles": "CCCCCCN(CCCN[C@@H](CCc1ccc(CCCCNC(=N)NC(=O)c2nc(Cl)c(N)nc2N)c2ccccc12)C(N)=O)C[C@H](O)[C@@H](O)[C@H](O)[C@H](O)CO", "values": [{"measurement": "IC50", "value": 14.3, "unit": "nM"}]}, {"smiles": "CCCCCCN(CCCN[C@@H](Cc1ccc(CCCCNC(=N)NC(=O)c2nc(Cl)c(N)nc2N)c2c1CCCC2)C(N)=O)C[C@H](O)[C@@H](O)[C@H](O)[C@H](O)CO", "values": [{"measurement": "IC50", "value": 8.4, "unit": "nM"}]}, {"smiles": "CCCCCCN(CCCN[C@@H](CCc1ccc2cc(CCCCNC(=N)NC(=O)c3nc(Cl)c(N)nc3N)ccc2c1)C(N)=O)C[C@H](O)[C@@H](O)[C@H](O)[C@H](O)CO", "values": [{"measurement": "IC50", "value": 6, "unit": "nM"}]}, {"smiles": "N=C(NCCCCc1ccc(CC[C@H](NCCCN(C[C@H](O)[C@@H](O)[C@H](O)[C@H](O)CO)C[C@H](O)[C@@H](O)[C@H](O)[C@H](O)CO)C(N)=O)cc1)NC(=O)c1nc(Cl)c(N)nc1N", "values": [{"measurement": "IC50", "value": 10.6, "unit": "nM"}]}, {"smiles": "N=C(NCCCCc1ccc2cc(C[C@H](NCCCN(C[C@H](O)[C@@H](O)[C@H](O)[C@H](O)CO)C[C@H](O)[C@@H](O)[C@H](O)[C@H](O)CO)C(N)=O)ccc2c1)NC(=O)c1nc(Cl)c(N)nc1N", "values": [{"measurement": "IC50", "value": 27.4, "unit": "nM"}]}]}
